# Data taken from US20250040554A1, “NEW USES OF PHENMEDIPHAM AND HERBICIDAL COMBINATIONS COMPRISING PHENMEDIPHAM” (BAYER AKTIENGESELLSCHAFT, priority 2021, published 2025).
# What was measured:
# Format in all cases: in vivo
# Conditions in all cases: 20 g/ha, 15 DAA
# [1] = tested on: AMARE=Amaranthus retroflexus; assay: Weed control field trial AMARE
# Excerpt: (§1) The respective (combinations of) materials were applied to weed plants in the greenhouse or in the field at the respective growth stage indicated hereinafter for the different weed species mentioned below. The respective (combinations of) active ingredients were also applied to corn, cotton and soybean crop plants, and the selectivity (damage) in these crop plants rated (assessed).
# (§2) Visual scoring of the damage to the trial plants took place after the time mentioned in the respective Table—indicated in number of Days After Application (DAA). Damage and development of all above-ground parts of the respective plants was recorded. Visual rating was done on a percentage scale in relation to the untreated control (100%=all plants dead; 50%=green plant biomass reduced by 50%, and 0%=no discernible difference=like control plot).
# (§3) wherein • A, B=respective value in percent of active ingredient A at a dose rate of a g/ha, ingredient B at a dose rate of b g/ha • E^C=Expected value according to Colby (S. R. Colby; Weeds 15 (1967), 20-22) in % at a dose rate of a+b, each in g/ha • Δ=Difference (in %) between measured value E and expected value E^C (%) (measured value minus expected value)
# (§4) After the harmful plants had emerged, they were treated, at the respective growth stage indicated, with the respective materials as indicated at a water application rate of 187 L/ha.
# (§5) After the treatment (15 days after the treatment), the herbicidal activity of respective material was scored visually at the same time by comparing the differently treated plots with the untreated control plots. The score figures of the different plots were averaged.
# (§6) The dose rates of herbicidal ingredients used in each case are indicated for the respective active ingredient and refer to the amount of active ingredient per hectare (g/ha).
# (§7) The weed control activity of different (combinations of) herbicidal active ingredients was investigated in field trials for the following weed species: • AMARE=Amaranthus retroflexus • KCHSC=Kochia scoparia • PANRA=Panicum ramosum
# (§8) The growth stage of AMARE was BBCH 19, the growth stage of KCHSC was BBCH 19 and the growth stage of PANRA was BBCH 22 at the time of application of the respective material.
# (§9) Phenmedipham and the respective aroylcyclohexanedione herbicide were applied at varying application rates (Dose Rate) to the different species of weed plants. The results are shown in Tables 4a to 4d as the % control when assessed 15 days after application (DAA), respectively.
# (§10) In all the trials of Tables 4a to 4d Mero® (rapeseed oil methyl ester) was added to the respective spray mixture in an amount corresponding to 1 L/ha for PMP, 1 L/ha for the respective aroylcyclohexanedione herbicide, and 2 L/ha for mixtures of PMP+the respective aroylcyclohexanedione herbicide.
# KCHSC=Kochia scoparia = assay: Weed control field trial KCHSC
# Excerpt: as §1, §2, §3, §4, §5, §6, §7, §8, §9, §10
# PANRA=Panicum ramosum = assay: Weed control field trial PANRA
# Excerpt: as §1, §2, §3, §4, §5, §6, §7, §8, §9, §10
smiles,measurement,setting,value
"CS(=O)(=O)c1ccc(C(=O)C2C(=O)CCCC2=O)c(Cl)c1 [SCT, 2-[2-chloro-4-(methylsulfonyl)benzoyl]cyclohexane-1,3-dione]",% control AMARE,[1],5%
same,% control KCHSC,KCHSC=Kochia scoparia,5%
"CS(=O)(=O)c1ccc(C(=O)C2C(=O)CCCC2=O)c(Cl)c1COCC(F)(F)F [TBT, 2-{2-chloro-4-(methylsulfonyl)-3-[(2,2,2-trifluoroethoxy)methyl]benzoyl}cyclohexane-1,3-dione]",% control AMARE,[1],35%
same,% control KCHSC,KCHSC=Kochia scoparia,20%
same,% control PANRA,PANRA=Panicum ramosum,20%
